This assay addresses T1, recombinant human 11 β-HSD1 (Homo sapiens, UniProt P28845).
T1 construct: made in house; host or cells: E. coli
Nature of the assay: 11 β-HSD1 SPA Assay (Scintillation Proximity Assay). Format: biochemical. In short, it runs like this:
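E. coli-expressed human enzyme (30-100 nM) with tritiated cortisone 40 nM and NADPH 1 mM in HEPES buffer pH7.4, 2 hours at room temperature. Stopped with protein A SPA beads carrying anti-cortisol antibody and glycyrrhetinic acid; counted after overnight incubation. IC50 from percent inhibition between no-enzyme and no-compound signals.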
T1 sequence (P28845 whole entry): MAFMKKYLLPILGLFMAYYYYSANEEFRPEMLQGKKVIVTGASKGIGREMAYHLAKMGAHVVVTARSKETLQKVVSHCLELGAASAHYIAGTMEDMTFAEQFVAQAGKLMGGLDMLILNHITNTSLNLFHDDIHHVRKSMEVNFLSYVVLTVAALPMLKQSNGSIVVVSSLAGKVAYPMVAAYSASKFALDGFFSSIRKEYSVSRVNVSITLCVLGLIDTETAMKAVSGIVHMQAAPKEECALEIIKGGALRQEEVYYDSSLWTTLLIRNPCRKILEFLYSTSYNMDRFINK
Take `C[C@H](NC(=O)c1ccc(N2C3CCC2CC(NC(=O)C(C)(C)Oc2ccc(Cl)cc2S(C)(=O)=O)C3)nc1)C(F)(F)F` (stereo partly drawn) [Example 432, 6-[3-endo-({2-[4-chloro-2-(methylsulfonyl)phenoxy]-2-methylpropanoyl}amino)-8-azabicyclo[3.2.1]oct-8-yl]-N-[(2S)-1,1,1-trifluoropropan-2-yl]pyridine-3-carboxamide]: the IC50 (usually the point on the concentration scale where inhibition reaches its midpoint) is below 2000 nM. As for `CC(C)(Oc1ccc(Cl)cc1C(C)(C)O)C(=O)N[C@H]1C[C@H]2CC[C@@H](C1)N2c1ccc(C(=O)NCC(F)F)cn1` [Example 465, 6-[3-endo-({2-[4-chloro-2-(2-hydroxypropan-2-yl)phenoxy]-2-methylpropanoyl}amino)-8-azabicyclo[3.2.1]oct-8-yl]-N-(2,2-difluoroethyl)pyridine-3-carboxamide], the figure is below 200 nM. As for `CC(C)(CO)NC(=O)c1ccc(N2[C@@H]3CC[C@H]2C[C@@H](NC(=O)C(C)(C)Oc2ccc(Cl)cc2Cl)C3)nc1` [Example 395, 6-(3-endo-{[2-(2,4-dichlorophenoxy)-2-methylpropanoyl]amino}-8-azabicyclo[3.2.1]oct-8-yl)-N-(1-hydroxy-2-methylpropan-2-yl)pyridine-3-carboxamide], the figure is below 200 nM; as for `CC(C)(Oc1ccc(Cl)cc1S(C)(=O)=O)C(=O)NC1CC2CCC(C1)N2c1ccc(C(=O)NC2CC2(F)F)cn1` (stereo not drawn) [Example 357, 6-[3-endo-({2-[4-chloro-2-(methylsulfonyl)phenoxy]-2-methylpropanoyl}amino)-8-azabicyclo[3.2.1]oct-8-yl]-N-(2,2-difluorocyclopropyl)pyridine-3-carboxamide], below 200 nM. With `CC(C)(Oc1ccc(Cl)cc1Cl)C(=O)N[C@H]1C[C@H]2CC[C@@H](C1)N2c1ccc(NC(=O)C(F)(F)F)cn1` [Example 146, 2-[(2,4-dichlorophenyl)oxy]-2-methyl-N-(8-{5-[(trifluoroacetyl)amino]pyridin-2-yl}-8-azabicyclo[3.2.1]oct-3-endo-yl)propanamide], the IC50 is below 200 nM.

Take `CC(C)(Oc1ccc(Cl)cc1Cl)C(=O)N[C@H]1C[C@H]2CC[C@@H](C1)N2c1ccc(C(=O)NC2CCS(=O)(=O)CC2)cn1` [Example 379, 6-(3-endo-{[2-(2,4-dichlorophenoxy)-2-methylpropanoyl]amino}-8-azabicyclo[3.2.1]oct-8-yl)-N-(1,1-dioxidotetrahydro-2h-thiopyran-4-yl)pyridine-3-carboxamide]: the IC50 is below 200 nM.

For the molecule `CC(C)NC(=O)c1ccc(N2[C@@H]3CC[C@H]2C[C@@H](NC(=O)C(C)(C)Oc2ncc(Cl)cc2Cl)C3)nc1` [Example 400, 6-(3-endo-(2-(3,5-dichloropyridin-2-yloxy)-2-methylpropanamido)-8-azabicyclo[3.2.1]octan-8-yl)-N-isopropylnicotinamide], the IC50 was below 200 nM. For `CC(C)(Oc1cc(C(C)(C)O)c(F)cc1Cl)C(=O)N[C@H]1C[C@H]2CC[C@@H](C1)N2c1ccc(C(=O)NCC(F)F)cn1` [Example 472, 6-[3-endo-({2-[2-chloro-4-fluoro-5-(2-hydroxypropan-2-yl)phenoxy]-2-methylpropanoyl}amino)-8-azabicyclo[3.2.1]oct-8-yl]-N-(2,2-difluoroethyl)pyridine-3-carboxamide] the value was below 200 nM; for `CC(C)(C(=O)N[C@H]1C[C@H]2CC[C@@H](C1)N2c1ccc(C(=O)NC2CC2)cn1)c1ccc(Cl)cc1` [Example 20, 6-(3-endo-{[2-(4-chlorophenyl)-2-methylpropanoyl]amino}-8-azabicyclo[3.2.1]oct-8-yl)-N-cyclopropyipyridine-3-carboxamide], below 200 nM; for `CC(C)(Oc1ccc(Cl)cc1C(F)F)C(=O)N[C@H]1C[C@H]2CC[C@@H](C1)N2c1ccc(C(=O)NCC(F)(F)F)cn1` [Example 364, 6-[3-endo-({2-[4-chloro-2-(difluoromethyl)phenoxy]-2-methylpropanoyl}amino)-8-azabicyclo[3.2.1]oct-8-yl]-N-(2,2,2-trifluoroethyl)pyridine-3-carboxamide], below 200 nM.

On to `CC(C)(Oc1ccc(Cl)cc1)C(=O)N[C@H]1C[C@H]2CC[C@@H](C1)N2c1ccc(S(N)(=O)=O)cn1` [Example 202, N-{8-[5-(aminosulfonyl)pyridin-2-yl]-8-azabicyclo[3.2.1]oct-3-endo-yl}-2-[(4-chlorophenyl)oxy]-2-methylpropanamide], for which the half-inhibitory concentration (IC50) was below 200 nM.

Consider `COCCNC(=O)c1ccc(N2[C@@H]3CC[C@H]2C[C@@H](NC(=O)C(C)(C)Oc2ccc(Cl)cc2)C3)nc1` [Example 89, 6-[3-endo-({2-[(4-chlorophenyl)oxy]-2-methylpropanoyl}amino)-8-azabicyclo[3.2.1]oct-8-yl]-N-[2-(methyloxy)ethyl]pyridine-3-carboxamide], for which the IC50 is below 200 nM. Turning to `CC(C)(Oc1ccc(Cl)cc1Cl)C(=O)N[C@H]1C[C@H]2CC[C@@H](C1)N2c1ccc(C(=O)NC2CCSCC2)cn1` [Example 380, 6-(3-endo-{[2-(2,4-dichlorophenoxy)-2-methylpropanoyl]amino}-8-azabicyclo[3.2.1]oct-8-yl)-N-(tetrahydro-2H-thiopyran-4-yl)pyridine-3-carboxamide], the IC50 was below 200 nM.

For the molecule `CC(C)(Oc1ccc(Cl)cc1C(F)(F)F)C(=O)N[C@H]1C[C@H]2CC[C@@H](C1)N2c1ccc(NS(C)(=O)=O)cn1` [Example 333, 2-{[4-chloro-2-(trifluoromethyl)phenyl]oxy}-2-methyl-N-(8-{5-[(methylsulfonyl)amino]pyridin-2-yl}-8-azabicyclo[3.2.1]oct-3-endo-yl)propanamide], the IC50 was below 200 nM. As for `CC(C)(Oc1ccc(Cl)cc1C1CCCC1)C(=O)N[C@H]1C[C@H]2CC[C@@H](C1)N2c1ccc(C(N)=O)cn1` [Example 320, 6-[3-endo-({2-[(4-chloro-2-cyclopentylphenyl)oxy]-2-methylpropanoyl}amino)-8-azabicyclo[3.2.1]oct-8-yl]pyridine-3-carboxamide], the figure is below 200 nM; as for `CC(C)(Oc1ccc(F)cc1S(C)(=O)=O)C(=O)N[C@H]1C[C@H]2CC[C@@H](C1)N2c1ccc(C(=O)NCC(F)(F)F)cn1` [Example 296, 6-{3-endo-[(2-{[4-fluoro-2-(methylsulfonyl)phenyl]oxy}-2-methylpropanoyl)amino]-8-azabicyclo[3.2.1]oct-8-yl}-N-(2,2,2-trifluoroethyl)pyridine-3-carboxamide], below 200 nM; as for `CC(C)(Oc1ccc(F)cc1Cl)C(=O)N[C@H]1C[C@H]2CC[C@@H](C1)N2c1ccc(-c2noc(C(F)(F)F)n2)cn1` [Example 276, 2-[(2-chloro-4-fluorophenyl)oxy]-2-methyl-N-(8-{5-[5-(trifluoromethyl)-1,2,4-oxadiazol-3-yl]pyridin-2-yl}-8-azabicyclo[3.2.1]oct-3-endo-yl)propanamide], below 2000 nM.

For the molecule `CC(C)(Oc1ccc(Cl)cc1S(C)(=O)=O)C(=O)N[C@H]1C[C@H]2CC[C@@H](C1)N2c1ccc(C(=O)NCC(F)F)cn1` [Example 422, 6-[3-endo-({2-[4-chloro-2-(methylsulfonyl)phenoxy]-2-methylpropanoyl}amino)-8-azabicyclo[3.2.1]oct-8-yl]-N-(2,2-difluoroethyl)pyridine-3-carboxamide], the concentration for half-maximal inhibition (IC50) was below 200 nM.

With `CC(C)NC(=O)c1ccc(N2[C@@H]3CC[C@H]2C[C@@H](NC(=O)C(C)(C)Oc2ccc(F)c(Cl)c2)C3)nc1` [Example 95, 6-[3-endo-({2-[(3-chloro-4-fluorophenyl)oxy]-2-methylpropanoyl}amino)-8-azabicyclo[3.2.1]oct-8-yl]-N-(1-methylethyl)pyridine-3-carboxamide], the IC50 is below 200 nM. As for `O=C(NCC(F)(F)F)c1ccc(N2[C@@H]3CC[C@H]2C[C@@H](NC(=O)C2(c4cccc(Cl)c4)CC2)C3)nc1` [Example 122, 6-[3-endo-({[1-(3-chlorophenyl)cyclopropyl]carbonyl}amino)-8-azabicyclo[3.2.1]oct-8-yl]-N-(2,2,2-trifluoroethyl)pyridine-3-carboxamide], the figure is below 200 nM. On to `CC(C)(Oc1ccc(F)cn1)C(=O)N[C@H]1C[C@H]2CC[C@@H](C1)N2c1ccc(C(=O)NCC(F)(F)F)cn1` [Example 109, 6-[3-endo-({2-[(5-fluoropyridin-2-yl)oxy]-2-methylpropanoyl}amino)-8-azabicyclo[3.2.1]oct-8-yl]-N-(2,2,2-trifluoroethyl)pyridine-3-carboxamide], for which the IC50 is below 200 nM. As for `CC(C)(Oc1ccc(Cl)cc1Cl)C(=O)N[C@H]1C[C@H]2CC[C@@H](C1)N2c1ccc(C(=O)NCC(F)(F)F)cc1` [Example 110, 4-[3-endo-({2-[(2,4-dichlorophenyl)oxy]-2-methylpropanoyl}amino)-8-azabicyclo[3.2.1]oct-8-yl]-N-(2,2,2-trifluoroethyl)benzamide], the figure is below 200 nM; as for `C[C@@H](NC(=O)c1ccc(N2C3CCC2CC(NC(=O)C(C)(C)Oc2cc(F)c(Cl)cc2Cl)C3)nc1)C(F)(F)F` (stereo partly drawn) [Example 450, 6-(3-endo-{[2-(2,4-dichloro-5-fluorophenoxy)-2-methylpropanoyl]amino}-8-azabicyclo[3.2.1]oct-8-yl)-N-[(2R)-1,1,1-trifluoropropan-2-yl]pyridine-3-carboxamide], below 200 nM; as for `CC(C)(Oc1ncc(Cl)cc1F)C(=O)N[C@H]1C[C@H]2CC[C@@H](C1)N2c1ccc(S(N)(=O)=O)cn1` [Example 247, N-{8-[5-(aminosulfonyl)pyridin-2-yl]-8-azabicyclo[3.2.1]oct-3-endo-yl}-2-[(5-chloro-3-fluoropyridin-2-yl)oxy]-2-methylpropanamide], below 2000 nM.

Regarding `CC(C)(Oc1cc(C(F)(F)F)ccc1F)C(=O)N[C@H]1C[C@H]2CC[C@@H](C1)N2c1ccc(S(C)(=O)=O)cn1` [Example 335, 2-{[2-fluoro-5-(trifluoromethyl)phenyl]oxy}-2-methyl-N-{8-[5-(methylsulfonyl)pyridin-2-yl]-8-azabicyclo[3.2.1]oct-3-endo-yl}propanamide], the IC50 was below 2000 nM.

Values taken from US8163771B2, “11 β-HSD1 modulators” (Exelixis, Inc., priority 2008, dated 2012).
